Key:
[1] = biological target: T1, MenA1:MenT1 (MenT1 in the presence of MenA1) (Mycobacterium tuberculosis, UniProt L7N686)
T1 construct: gene Rv0078A

[2] = biological target: T1, MenA1:MenT1 (MenT1 in the presence of MenA1); remark: listed apart in the source

Structure (SMILES)	phosphorylation assay of MenT1 [1]	ΔTm [2]
Nc1ncnc2c1ncn2[C@@H]1O[C@H](COP(=O)(O)OP(=O)(O)O)[C@@H](O)[C@H]1O [ADP]	Co-incubation of MenT1, MenA1 and MgCl2 with ADP, but not AMP or AMP-PNP, supported phosphorylation	–
O=c1ccn([C@@H]2O[C@H](COP(=O)(O)OP(=O)(O)OP(=O)(O)O)[C@@H](O)[C@H]2O)c(=O)[nH]1 [UTP]	–	no significant differences between mean ΔTm values were observed when incubated with any
Nc1nc2c(ncn2[C@@H]2O[C@H](COP(=O)(O)OP(=O)(O)OP(=O)(O)O)[C@@H](O)[C@H]2O)c(=O)[nH]1 [GTP]	–	no significant differences between mean ΔTm values were observed when incubated with any
Nc1ccn([C@@H]2O[C@H](COP(=O)(O)OP(=O)(O)OP(=O)(O)O)[C@@H](O)[C@H]2O)c(=O)n1 [CTP]	–	no significant differences between mean ΔTm values were observed when incubated with any
Nc1ncnc2c1ncn2[C@@H]1O[C@H](COP(=O)(O)OP(=O)(O)OP(=O)(O)O)[C@@H](O)[C@H]1O [ATP]	–	no significant differences between mean ΔTm values were observed when incubated with any
